From ChEMBL document CHEMBL2203134, “Discovery of XL888: a novel tropane-derived small molecule inhibitor of HSP90” (Bioorg Med Chem Lett, 2012) come the findings set out here.

A short description of series [1]: Drug metabolism in human liver microsomes at 15 uM after 30 mins. The series is classed as ADME, Microsome. To be noted: read-out: Drug metabolism.
Series [2] concerns the target T1, Heat shock protein HSP90 (Homo sapiens, UniProt P07900+P08238). Kind of series: Displacement of biotinylated geldanamycin from human His-tagged Hsp90 by TR-FRET assay. The series is classed as protein assay. For orientation: Time-resolved FRET reads energy transfer from a long-lived donor to a nearby acceptor.
Series [3] in a line: Apparent permeability across MDCK cells. The following applies: dog. The class given is ADME, cell-based, Canis lupus familiaris.
The nature of series [4]: Kinetic solubility of the compound. The series is classed as physicochemical. To be noted: read-out: Kinetic_solubility.
Series [5] deals with T1, Heat shock protein HSP90. As to the kind of experiment: Inhibition of Hsp90 in human A549 cells assessed as Raf1 degradation after 24 hrs by Western blot analysis. The class given is cell-based. (In general: Immunoblotting shows a protein as a band on a membrane.)
Series [6] has as its target T1, Heat shock protein HSP90. Kind of series: Inhibition of Hsp90 in human NCI-N87 cells assessed as Her2 degradation after 24 hrs by Western blot analysis. The series is classed as cell-based.
The nature of series [7]: Half life in rat at 2.5 mg/kg, iv. Also noted: dose 2.5 mg/kg, route intravenous. The following applies: in vivo. The series is classed as ADME, organism-based.
Series [8] is described as follows: Clearance in rat at 2.5 mg/kg, iv. The series is classed as ADME, organism-based. On the set-up: dose 2.5 mg/kg, route intravenous. To be noted: in vivo.
For series [9], the system named is Rattus norvegicus. As to the kind of experiment: Dose normalized AUC in rat at 2.5 mg/kg, iv. Also noted: dose 2.5 mg/kg, route intravenous. The following applies: in vivo. The class given is ADME, organism-based.
A short description of series [10]: Oral bioavailability in rat at 2.5 mg/kg. The series is classed as ADME, organism-based. To be noted: in vivo.
A short description of series [11]: Half life in rat at 5 mg/kg, iv. The series is classed as ADME, organism-based. Also noted: dose 5 mg/kg, route intravenous. The following applies: in vivo.
A short description of series [12]: Clearance in rat at 5 mg/kg, iv. The following applies: in vivo. The series is classed as ADME, organism-based. On the set-up: dose 5 mg/kg, route intravenous.
In series [13] the test system is Rattus norvegicus. As to the kind of experiment: Dose normalized AUC in rat at 5 mg/kg, iv. The series is classed as ADME, organism-based. Also noted: dose 5 mg/kg, route intravenous. To be noted: in vivo.
Series [14] can be described thus: Oral bioavailability in rat at 5 mg/kg. The series is classed as ADME, organism-based. The following applies: in vivo.
Series [15] in a line: Drug metabolism in mouse liver microsomes at 15 uM after 30 mins. The class given is ADME, Microsome. To be noted: read-out: Drug metabolism. Background: Liver microsomes are a subcellular fraction often used to study metabolism.
A short description of series [16]: Oral bioavailability in rat. The class given is ADME, organism-based. The following applies: in vivo.
Series [17] is described as follows: Clearance in iv dosed rat. To be noted: in vivo. The class given is ADME, organism-based.
A short description of series [18]: Half life in iv dosed rat. The series is classed as ADME, organism-based. To be noted: in vivo.
Series [19] has as its system Rattus norvegicus. As to the kind of experiment: Dose normalized AUC in iv dosed rat. The series is classed as ADME, organism-based. The following applies: in vivo.

Converted amounts (≈) assume the structure as drawn.

The term IC50 denotes the concentration that gives 50% inhibition. A word on the Papp: it is a coefficient for how fast a substance crosses the barrier. Turning to `COc1cccc(C(=O)NC2CC3CCC(C2)N3c2ccc(C(=O)N[C@@H](C)c3ccccc3)cn2)c1C` (some centres undefined), the metabolised at 0.5 h, 15 µM in series [1] came out at 68%. The results for the IC50 on Heat shock protein HSP90 [2] and on Heat shock protein HSP90 [5] were 126 nM and 421 nM, respectively. The Papp in series [3] came to 38 ×10⁻⁶ cm/s. Also, in [4], the solubility kinetic came out at 2.2 µM (≈ 1.1 µg/mL).

`CCNC(=O)c1ccc(N2C3CCC2CC(NC(=O)c2ccc(C(N)=O)c(NCC4CC4)c2)C3)nc1` (centres undefined): the IC50 at Heat shock protein HSP90 [2] is recorded as 104 nM; at Heat shock protein HSP90 [6], 2170 nM. In addition, the apparent permeability (Papp) in [3] came to 32.4 ×10⁻⁶ cm/s.

With `Cc1cc(CO)ccc1C(=O)NC1CC2CCC(C1)N2c1ccc(C(=O)NCc2ccccc2)cn1` (centres undefined), the IC50 was found to be 128 nM at Heat shock protein HSP90 [2] and 1900 nM on Heat shock protein HSP90 [5]. In series [3], the Papp amounted to 3 ×10⁻⁶ cm/s.

Consider `CCCNc1cc(C(=O)NC2CC3CCC(C2)N3c2ccc(C(=O)C3CC3)cn2)c(C)cc1C(N)=O` (centres undefined), for which the IC50 on Heat shock protein HSP90 [2] was determined as 24 nM; on Heat shock protein HSP90 [6], 1122 nM. For the same compound, the Papp in [3] was determined as 23.4 ×10⁻⁶ cm/s.

As a reminder, the half-life is the time in which the quantity being followed falls by half. The clearance is a measure of how efficiently the substance is removed, as volume per time. As a reminder, the bioavailability is the share of a dose that reaches the circulation, judged against a reference dose that is usually intravenous. A higher bioavailability goes with much systemic uptake. Regarding `CC[C@H](C)Nc1cc(C(=O)NC2CC3CCC(C2)N3c2ccc(C(=O)C3CC3)cn2)c(C)cc1C(N)=O` (some centres undefined), the half-life in series [7] was 1 h. The compound also showed a clearance in series [8] of 38.5 mL/min/kg. Further, the AUC/dose in the series on Rattus norvegicus [9] turned out to be 0.87 µM·kg·h/mg. At Heat shock protein HSP90 [6], the concentration for half-maximal inhibition (IC50) worked out at 252 nM. The Papp in series [3] was found to be 24 ×10⁻⁶ cm/s. The compound further gave a bioavailability in series [10] of 20%.

Regarding `CCC(CC)Nc1cc(C(=O)NC2CC3CCC(C2)N3c2ccc(C(=O)C3CC3)cn2)ccc1C(N)=O` (centres undefined), the IC50 on Heat shock protein HSP90 [2] was 86 nM; at Heat shock protein HSP90 [6], 117 nM. In series [11], this compound gave a half-life of 0.5 h. Besides, the Papp in series [3] was determined as 14.1 ×10⁻⁶ cm/s. This compound had a clearance in series [12] of 39.7 mL/min/kg. Further, the AUC/dose in the series on Rattus norvegicus [13] came to 0.78 µM·kg·h/mg. In series [14], this compound yielded a bioavailability of 11%.

As to `CCC(CC)Nc1cc(C(=O)NC2CC3CCC(C2)N3c2ccc(C(C)=O)cn2)ccc1C(N)=O` (centres undefined), the results for the IC50 at Heat shock protein HSP90 [2] and at Heat shock protein HSP90 [6] were 38 nM and 52 nM, respectively. The half-life in series [11] is 0.5 h. In addition, the Papp in series [3] turned out to be 67.6 ×10⁻⁶ cm/s. Also, the clearance in [12] is 28.5 mL/min/kg. The AUC/dose with Rattus norvegicus [13] stood at 1.22 µM·kg·h/mg. In addition, the bioavailability in series [14] was 5%.

`CC(=O)c1ccc(N2C3CCC2CC(NC(=O)c2ccc(C(N)=O)c(NCC4CC4)c2)C3)nc1` (centres undefined) had a half-life in series [7] of 7 h. The compound also had a clearance in series [8] of 71.5 mL/min/kg. The AUC/dose with Rattus norvegicus [9] stood at 0.5 µM·kg·h/mg. For the same compound, the IC50 on Heat shock protein HSP90 [2] worked out at 40 nM; at Heat shock protein HSP90 [6], 182 nM. For the same compound, the apparent permeability coefficient (Papp) in series [3] amounted to 44.2 ×10⁻⁶ cm/s. In [10], this compound had a bioavailability of 42%.

`O=C(NCc1ccccc1)c1ccc(N2C3CCC2CC(NC(=O)c2ccc(CO)cc2)C3)nc1` (centres undefined): the values for the IC50 on Heat shock protein HSP90 [2] and at Heat shock protein HSP90 [5] were 322 nM and 5400 nM, respectively. Moreover, the apparent permeability (Papp) in series [3] was determined as 2.5 ×10⁻⁶ cm/s.

On to `NC(=O)c1ccc(C(=O)NC2CC3CCC(C2)N3c2ccc(C(=O)C3CC3)cn2)cc1NCC1CC1` (centres undefined), for which the half-life in series [7] was 22 h. The clearance in [8] is 8.43 mL/min/kg. This compound displayed an AUC/dose in the series on Rattus norvegicus [9] of 3.7 µM·kg·h/mg. The IC50 was 120 nM at Heat shock protein HSP90 [2] and 494 nM at Heat shock protein HSP90 [6]. For the same compound, in series [3], the Papp was 50.3 ×10⁻⁶ cm/s. The compound also registered a bioavailability in series [10] of 41%.

On to `C[C@H](NC(=O)c1ccc(N2C3CCC2CC(NC(=O)c2ccc(C(N)=O)c(Nc4ccccc4)c2)C3)nc1)c1ccc(N2CCN(C)CC2)cc1` (some centres undefined), for which the IC50 on Heat shock protein HSP90 [2] turned out to be 260 nM; at Heat shock protein HSP90 [5], 105 nM. Also, the Papp in series [3] is 0.32 ×10⁻⁶ cm/s.

For the compound `COc1cccc(C(=O)NC2CC3CCC(C2)N3c2ccc(C(=O)NCc3ccccc3)cn2)c1C` (centres undefined), in series [7], the half-life is 0.72 h. Besides, the metabolised at 0.5 h, 15 µM was 64% in series [1] and 79% in series [15]. This compound also had a clearance in series [8] of 38.1 mL/min/kg. Further, the AUC/dose in the series on Rattus norvegicus [9] stood at 0.9 µM·kg·h/mg. The apparent permeability coefficient (Papp) in series [3] worked out at 50.5 ×10⁻⁶ cm/s. In addition, the solubility kinetic in series [4] is 4.1 µM (≈ 1.99 µg/mL). Further, the bioavailability in series [10] is 4%.

`COc1cccc(C(=O)NC2CC3CCC(C2)N3c2ccc(C(=O)NCc3ccc(N4CCN(C)CC4)cc3)cn2)c1C` (centres undefined) registered a bioavailability in series [16] of 28%. Further, the metabolised at 0.5 h, 15 µM in [1] amounted to 28%. Also, the values for the IC50 at Heat shock protein HSP90 [2] and at Heat shock protein HSP90 [5] were 108 nM and 579 nM, respectively. For the same compound, the clearance in series [17] was 112 mL/min/kg. The Papp in series [3] stood at 7.4 ×10⁻⁶ cm/s. Moreover, the half-life in [18] was 6.5 h. The compound further came in with an AUC/dose in the series with Rattus norvegicus [19] of 0.23 µM·kg·h/mg. The solubility kinetic in series [4] came to 285 µM (≈ 166 µg/mL).

`Cc1cc(C(=O)NC2CC3CCC(C2)N3c2ccc(C(=O)N[C@@H](C)c3ccc(N4CCN(C)CC4)cc3)cn2)c(C)cc1C(N)=O` (some centres undefined): the figures for the IC50 on Heat shock protein HSP90 [2] and on Heat shock protein HSP90 [5] were 53 nM and 2900 nM, respectively. The Papp in series [3] is less than 0.01 ×10⁻⁶ cm/s.
